What was measured:
[1] = tested on: collagenase; experiment: Anti-collagenase activity on frozen sections, collagen stained with picro-sirius and image analysis; type: biochemical
Description: The anti-collagenase activity test was carried out on ds-es frozen sections. The products to be tested were mixed (volume/volume) with a collagenase solution at 60 U/ml. Incubation took place in a humid chamber for 2 h at 37° C. The remaining collagen was stained with picro-sirius and quantified by image analysis.
• 1. Control TRIS buffer • 2. Collagenase […] • 3. Reference R: phenanthroline • 4. Reference R: phenanthroline+collagenase 60 U/ml • 5. Product P2: Immortelle very precious cream ref 05.34.A • 6. Product P2: Immortelle very precious cream ref 05.34.A+collagenase 60 U/ml
For each sample, 4 microscopic fields were analysed as a function of the size of the sample. Each microscopic field is digitised and analysed according to the method described below using the LEICA QWIN software.
1. Digitised Image • Staining of the collagen network
2. Detection of the Collagen by Thresholding • Binary mask 0
3. Determination of the Zone of Interest • Exclusion of the epidermis and annexes • Inversion of the mask so as to retain only the zone corresponding to the dermis • Binary mask 2
4. Selection of Collagen in the Zone of Interest • Binary mask 3=2+0
5. Surface measurement Measurement of binary mask 3 • Measurement of binary mask 2
6. Results Exporting of results to Excel • Calculation of the percentage of surface area occupied by collagen in the dermis

[2] = tested on: melanocytes; experiment: Reduction of intra-cellular melanin; type: cell-based; conditions: AA-2G 2 mM for 48 hours
Description: • a) Culturing of melanocytes for 48 hours • b) Addition of AA-2G 2 mM for 48 hours • c) Lysis of the cells in order to read the quantity of melanin contained.

[3] = tested on: melanocytes; experiment: Inhibition of melanogenesis stimulated by theophylline; type: cell-based; conditions: AA-2G 2.5 mM for 12 hours; theophylline 0.5 mM
Description: • a) Culturing of melanocytes with AA-2G 2.5 mM+control without AA-2G for 12 hours • b) Stimulation of melanogenesis by theophylline (0.5 mM) • c) Detection of melanin by colorimetry (photos).

[4] = tested on: keratinocytes; experiment: Stimulation of ATP synthesis, intracellular ATP content by bioluminescence; type: cell-based; conditions: 0.01%; incubation for 6 hours
Description: After incubation for 6 hours, the intracellular ATP content was measured by bioluminescence using the kit “ATP Monitoring Kit” (LABSYSTEMS) according to the manufacturer's instructions. The results were expressed in mM of ATP and as a percentage of the control group.
Effect of Sepitonic M3 and of cytochrome C on the ATP content of keratinocytes after incubation for 6 hours: […]

c1cnc2c(c1)ccc1cccnc12 [phenanthroline]
anti-collagenase activity, in words [1]: completely inhibits the effect of collagenase
percentage of surface area occupied by collagen in the dermis, Mean (typical variance) ([1]; With collagenase (60 U/ml mixed volume/volume), 2 h at 37° C.): 90.4 (3.8) %
histological examination of the collagen ([1]; without collagenase): well structured
percentage of surface area occupied by collagen in the dermis, Mean (typical variance) ([1]; without collagenase): 88.7 (1.5) %

O=C1O[C@H]([C@@H](O)CO)C(O)=C1O[C@H]1O[C@H](CO)[C@@H](O)[C@H](O)[C@H]1O [AA-2G, O-α-D-glucopyranosyl-(1→2)-L-ascorbic acid]
reduction of intra-cellular melanin [2]: 60%
quantity of developed melanin versus untreated melanocytes (photos) [3]: lesser quantity of developed melanin

Cytochrome C: reference in the keratinocyte ATP test
ATP content of keratinocytes, percentage of the control group (ES) [4]: ES 110%

Reference: patent publication US20090269419A1, “COSMETIC COMPOSITION BASED ON POLYUNSATURATED FATTY ACIDS AND ITS USES” (priority 2006, published 2009)
